Values joined by “and” are separate entries in the source; they are usually repeats but may differ in a detail not shown here. Identical values can stand only once. Like-named read-outs stand apart in the source and are kept apart here.
Tests used:
[1] = test system: P-388 leukemia; test: antitumor activity, intravenously implanted P-388 leukemia; type: in vivo, mice
[2] = toxicity in mice; conditions: mouse, in vivo
[3] = test system: B16 melanoma
Description: (§1) Lymphocytic leukemia P-388, lymphoid leukemia L-1210, melanotic melanoma B16 and Lewis lung carcinoma were implanted intraperitoneally into male BDF1 mice at an inoculum size of 10^6, 10^5, 5×10^5 and 10^6 cells per mouse, respectively. Graded doses of test compounds were administered to the mice intraperitoneally 24 hours after the tumor inoculation.
(§2) Death or survival of the treated and non-treated mice was recorded daily, and the median survival time (MST) was calculated for each of the test (T) and control (C) groups.

[4] = test system: Lewis lung carcinoma
Description: as §1, §2

[5] = iv days 1,4,7, doses as MST lines, same order
[6] = ip qd 1→9, doses as T/C lines, same order
[7] = ip qd 1→11, doses as T/C lines, same order

Compound	T/C ([1]; iv days 1,4,7, 1 mg/kg/day)	T/C ([1]; iv days 1,4,7, 10 mg/kg/day)	Survivors on day 5 [1, 5]	Survivors on day 45 [1, 5]	LD50 ([2]; ip, LD50, multiple dose (qd 1→9) i.p.)	LD50 ([2]; ip, LD50, single dose i.p.)	LD50 ([2]; iv, LD50, single dose i.v.)	T/C ([3]; ip qd 1→9, 0.003 mg/kg/day)	Average wt. change on day 5 [3, 6]	MST [3, 6]	Survivors on day 5 [3, 6]	Survivors on day 45 [3, 6]	T/C ([4]; ip qd 1→11, 0.003 mg/kg/day)	MST [4, 7]	Survivors on day 5 [4, 7]	Survivors on day 45 [4, 7]	Average wt. change on day 5 ([4]; mouse, in vivo, ip)	Survivors on day 5 ([4]; mouse, in vivo, ip)
COc1cccc2c1C(=O)c1c(O)c3c(c(O)c1C2=O)C[C@@](O)(C(=O)CO)C[C@@H]3O[C@H]1C[C@H](N)[C@H](O)[C@H](C)O1 [Adriamycin, adriamycin]	100%	100%	0/6 and 6/6	0/6														
CO[C@@H]1[C@H](O)C[C@@H](O[C@@H]2C[C@H](Oc3cc4cc5c(c(O)c4c(O)c3C)C(=O)[C@@H](O[C@H]3C[C@@H](O[C@H]4C[C@@H](O[C@H]6C[C@](C)(O)[C@@H](OC(C)=O)[C@H](C)O6)[C@H](O)[C@@H](C)O4)[C@H](O)[C@@H](C)O3)[C@H]([C@H](OC)C(=O)[C@@H](O)[C@@H](C)O)C5)O[C@H](C)[C@@H]2OC(C)=O)O[C@@H]1C [Chromomycin A3, chromomycin A3]					0.23 mg/kg	0.81 mg/kg	0.41 mg/kg	109%	+2.2 g	25.5 days and 23.0 days and 21.0 days and 18.0 days	6/6	0/6	105%	21.5 days and 17.0 days and 11.5 days	6/6	1/6 and 0/5 and 0/6	+1.7 g	5/5

Source: patent US4675187A, “BBM-1675, a new antibiotic complex” (priority 1985, dated 1987)
